Measured values from ChEMBL document CHEMBL1208698, “Synthesis of novel alpha-pyranochalcones and pyrazoline derivatives as Plasmodium falciparum growth inhibitors” (Bioorg Med Chem Lett, 2010).
In brackets after ≈: the same amount, converted by molar mass.

Assays:
[1] = Cytotoxicity against human HeLa cells after 24 to 48 hrs by MTT assay; format: cell-based; conditions: read-out: TC50 (the source's name)
[2] = Therapeutic index, ratio of TC50 for human HeLa cells to IC50 for Plasmodium falciparum RKL9; format: cell-based; conditions: read-out: TI
[3] = test system: Plasmodium falciparum; experiment: Antimalarial activity against chloroquine-resistant Plasmodium falciparum RKL9 infected in human erythrocyte after 48 h by SYBR-Green-1 assay; format: functional, organism-based; conditions: RKL9, 48 h
[4] = test system: Plasmodium falciparum; experiment: Resistance index, ratio of IC50 for Plasmodium falciparum 3D7 to IC50 for Plasmodium falciparum RKL9; format: functional
[5] = test system: Plasmodium falciparum; experiment: Antimalarial activity against chloroquine-sensitive Plasmodium falciparum 3D7 infected in human erythrocyte after 48 h by SYBR-Green-1 assay; format: functional, organism-based; conditions: 3D7, 48 h

Row | SMILES | IC50 [5] | CC50 [1] | selectivity ratio [2] | IC50 [3] | Ratio IC50 [4] | IC80 [5]
1 | COc1cc(/C=C/C(=O)c2cc3ccccc3oc2=O)cc(OC)c1OC | 3.1 µg/mL (≈ 8.46 µM) | > 100 µg/mL | > 50 | 1.9 µg/mL (≈ 5.19 µM) | 1.6 | 6 µg/mL (≈ 16.4 µM)
2 | COc1cccc(/C=C/C(=O)c2cc3ccccc3oc2=O)c1 | 11 µg/mL (≈ 35.9 µM) | > 100 µg/mL | > 20 | 4.9 µg/mL (≈ 16 µM) | 2.2 | 24 µg/mL (≈ 78.4 µM)
3 | COc1ccc(/C=C/C(=O)c2cc3ccccc3oc2=O)cc1 | > 100 µg/mL | – | – | – | – | –
4 | COc1ccc(/C=C/C(=O)c2cc3ccccc3oc2=O)c(OC)c1OC | 3.1 µg/mL (≈ 8.46 µM) | 100 µg/mL (≈ 273 µM) | 90.9 | 1.1 µg/mL (≈ 3 µM) | 2.8 | 6.2 µg/mL (≈ 16.9 µM)
5 | Cc1cc(=O)oc2ccc(C(=O)/C=C/c3ccccc3Cl)c(O)c12 | 20 µg/mL (≈ 58.7 µM) | – | – | 13.5 µg/mL (≈ 39.6 µM) | 1.5 | 25 µg/mL (≈ 73.4 µM)
6 | COc1ccc(C2CC(c3cc4ccccc4oc3=O)=NN2C(C)=O)cc1OC (stereo not given) | 10 µg/mL (≈ 25.5 µM) | > 100 µg/mL | > 10 | 9 µg/mL (≈ 22.9 µM) | 1.1 | 14 µg/mL (≈ 35.7 µM)
7 | COc1ccc(C2CC(c3cc4ccccc4oc3=O)=NN2c2ccccc2)cc1OC (stereo not given) | 10 µg/mL (≈ 23.4 µM) | > 100 µg/mL | > 13 | 7.6 µg/mL (≈ 17.8 µM) | 1.3 | 44 µg/mL (≈ 103 µM)
8 | C[C@@H]1CC[C@H]2[C@@H](C)C(=O)O[C@@H]3O[C@@]4(C)CC[C@@H]1[C@]32OO4 [ARTEMISININ] | – | – | – | 0.00451 µg/mL (≈ 0.016 µM) | – | 0.00846 µg/mL (≈ 0.03 µM)

Continued, in another order:

Row | IC50 [5] | SMILES | CC50 [1] | selectivity ratio [2] | IC50 [3] | Ratio IC50 [4] | IC80 [5]
9 | 26.7 µg/mL (≈ 79.4 µM) | COc1ccc(/C=C/C(=O)c2cc3ccccc3oc2=O)cc1OC | – | – | – | – | 100 µg/mL (≈ 297 µM)
10 | 2.7 µg/mL (≈ 8.03 µM) | COc1ccc(OC)c(/C=C/C(=O)c2cc3ccccc3oc2=O)c1 | – | – | – | – | 11.3 µg/mL (≈ 33.6 µM)
11 | > 100 µg/mL | COc1cc(OC)c(OC)cc1/C=C/C(=O)c1cc2ccccc2oc1=O | – | – | – | – | –
12 | > 100 µg/mL | COc1ccccc1/C=C/C(=O)c1cc2ccccc2oc1=O | – | – | – | – | –
13 | > 100 µg/mL | COc1ccc(OC)c(/C=C/C(=O)c2ccc3oc(=O)cc(C)c3c2O)c1 | – | – | – | – | –
14 | > 100 µg/mL | CC(=O)N1N=C(c2ccc(O)cc2)CC1c1ccc(F)cc1 (stereo not given) | – | – | – | – | –
